Measurements published in patent EP2664619B1, “Purine derivatives as tools for screening anti-Alzheimer compounds” (Manros Therapeutics, priority 2012, dated 2013).
Each block holds one compound with its values, some of them ahead of it.

What was measured:
[1] = system: Aβ42; test: Effect of γ-secretase inhibitors/modulator on Aftin-induced production of Aβ42; type: cell-based; details: for IC50: γ-secretase inhibitor, Aftin-induced production
From the text: (§1) To investigate the importance of γ-secretases in the effects of Aftins according to the invention, two potent pharmacological inhibitors of γ-secretases, DAPT (N-[(3,5-Difluorophenyl)acetyl]-L-alanyl-2-phenyl]glycine-1,1-dimethylethyl ester) and BMS 299897 were used.

[2] = system: Aβ38; test: Sandwich ELISA measurement of Aβ38 levels in supernatant of treated N2a-APP695 cells; type: cell-based, Mouse
Protocol: (§2) Mouse neuroblastoma cells (N2a cells) or N2a-APP695 cells (N2a cell line stably transfected with APP695, an amyloid precursor protein) were cultured in an essential medium composed of Dulbecco's minimal essential medium (DMEM) and of OptiMEM® (1:1, v/v) (Gibco®) containing 0.2 mg/mL Geniticin (Geneticin® Selective Antibiotic, Gibco®) and 5 % fetal bovine serum (FBS, Gibco®, EU approved origin) in a humidified, 5% CO2 incubator at 37°C. Routinely, cells were split without use of Trypsin every 4/5 days. They were first rinsed with PBS (Gibco) and detached from the plate bottom using 4 mL Versene (Gibco) at room temperature for 3-4 min. […]
(§3) The N2a-APP695 cells were seeded at 10.000 cells/well in a 96 well plate with modified media (0.5% FBS) and incubated overnight. Cells were treated with fresh media comprising different compounds according to the invention (equal quantity of DMSO sold by Sigma®). […]
(§4) Then, Aβ38, Aβ40 and Aβ42 levels were measured in a sandwich ELISA (Enzyme-Linked ImmunoSorbent Assay) using a combination of monoclonal antibody 6E10 (mAb 6E10) (sold by Covance® under the reference SIG-39320) and biotinylated polyclonal Aβ38, Aβ40 or Aβ42 antibodies (provided by Dr. P.D. Mehta, IBR, Staten Island, USA). […]
(§5) The optical density was finally measured at 490 nm in a microELISA reader (sold by BioTek Instrument, reference E1 800, Gen 5 software).

[3] = system: Aβ40; test: Sandwich ELISA measurement of Aβ40 levels in supernatant of treated N2a-APP695 cells; type: cell-based, Mouse
Protocol: as §2, §3, §4, §5

[4] = system: Aβ38; test: Effect of γ-secretase inhibitors/modulator on Aβ38 level in Aftin-treated cells; type: cell-based; details: for IC50: γ-secretase inhibitor, Aftin-treated cells
From the text: as §1

[5] = system: Aβ42 production; test: Sandwich ELISA measurement of Aβ42 levels in supernatant of treated N2a-APP695 cells; type: cell-based, Mouse
Protocol: Mouse neuroblastoma cells (N2a cells) or N2a-APP695 cells (N2a cell line stably transfected with APP695, an amyloid precursor protein) were cultured in an essential medium composed of Dulbecco's minimal essential medium (DMEM) and of OptiMEM® (1:1, v/v) (Gibco®) containing 0.2 mg/mL Geniticin (Geneticin® Selective Antibiotic, Gibco®) and 5 % fetal bovine serum (FBS, Gibco®, EU approved origin) in a humidified, 5% CO2 incubator at 37°C. Routinely, cells were split without use of Trypsin every 4/5 days. They were first rinsed with PBS (Gibco) and detached from the plate bottom using 4 mL Versene (Gibco) at room temperature for 3-4 min. 8 mL of fresh medium were added to the cell suspension, and the mix was centrifuged for 3 min at 1,000 rpm. The cell pellet was resuspended in fresh medium before seeding (1/10 dilution) in new flasks.
The N2a-APP695 cells were seeded at 10.000 cells/well in a 96 well plate with modified media (0.5% FBS) and incubated overnight. Cells were treated with fresh media comprising different compounds according to the invention (equal quantity of DMSO sold by Sigma®). They were then incubated for 18h in a humidified, 5% CO2 incubator.
Purines according to the invention were added at various concentrations to N2a-APP695.
The plate was finally centrifuged to remove cell fragments before collecting supernatant samples for amyloids levels determination.
Then, Aβ38, Aβ40 and Aβ42 levels were measured in a sandwich ELISA (Enzyme-Linked ImmunoSorbent Assay) using a combination of monoclonal antibody 6E10 (mAb 6E10) (sold by Covance® under the reference SIG-39320) and biotinylated polyclonal Aβ38, Aβ40 or Aβ42 antibodies (provided by Dr. P.D. Mehta, IBR, Staten Island, USA).
A solution of 100 µl mAb 6E10 diluted in carbonate-bicarbonate buffer, pH 9.6, was coated in the wells of microtiter plates (Maxisorp™ sold by Nunc®) and incubated at 4°C overnight. The plates were then washed with PBST (PBS tablets sold by Gibco®) containing 0.05% Tween-20 (Sigma®), and blocked for 1 h with 1% BSA (Sigma®) in PBST (PBS tablets sold by Gibco®) containing 0.05 Tween-20 (Sigma®) to avoid nonspecific binding.
Following a washing step, samples were added and incubated for 2 hours at room temperature (RT) and then at 4°C overnight. Plates were then washed before incubation with biotinylated polyclonal antibody diluted in PBST (PBS tablets sold by Gibco®) containing 0.05 Tween-20 (Sigma®) + 0.5% BSA at room temperature for 75 minutes.
After a washing step, streptavidin-horseradish peroxidase conjugate (Streptavidin poly-HRP, Thermo Scientific Pierce®), diluted in PBS + 1% BSA, was added and incubation was carried out for 45 min at room temperature. After washing, 100 µl of o-phenylenediamine dihydrochloride (OPD tablets, Invitrogen®) diluted in citrate buffer pH 5.0 were added. The reaction was stopped after 15 min with the addition of 100 µl 1 N sulfuric acid.
A range of known concentrations of Aβ38, Aβ40 and Aβ42, ranging from 0.01 to 10 ng/mL for Aβ38 and Aβ42, and ranging from 0.001 to 10 ng/mL for Aβ40, were use as a reference scale to determine the concentrations of Aβ38, Aβ40 and Aβ42 obtained.
as §5
The EC50 of the molecules tested were thus calculated.

[6] = system: N2a-APP695 cells; test: MTS cell viability assay in the same wells as the ELISA
Protocol: To measure cell viability, the MTS assay (CellTiter 96® AQueous One Solution Cell Proliferation Assay, Promega) was used in the same wells as the capture ELISA assay. 20µl of MTS reagent (3-(4,5-dimethylthiazol-2-yl)-5-(3-carboxymethoxyphenyl)-2-(4-sulfophenyl)-2H-tetrazolium) was added in each well containing 100µl of media and incubation was then proceeded for 3 hours (37°C, 5% CO2 and 95% humidity). Measurements were made on OD 490Δ630 nm (excitation and emission wavelengths) using a microELISA reader (BioTek Instrument, El 800, Gen 5 software).

[7] = system: γ-secretases; details: read-out: reported IC50 values on γ-secretases; cited from earlier work
[8] = system: Aβ40; test: Effect of γ-secretase inhibitors on Aβ40 level in Aftin-treated cells; type: cell-based; details: γ-secretase inhibitor
From the text: as §1

[9] = N2a-APP695 cells, 1 µM added simultaneously with increasing concentrations of Aftin-5
[10] = N2a-APP695 cells, 18 hours, dose-dependent, Figure 3

Aβ42 regulation [1, 9]: down-regulation
effect on Aftin-5 induced Aβ42 up-regulation and Aβ38 down-regulation ([1]; N2a-APP695 cells, added 1 h prior to 100 µM Aftin-5, dose dependent, Figure 4): inhibition of Aftin-5 effect
Compound: CCN(CC)c1ccc(C)c(Nc2nc(-c3ccc(-n4cnc(C)c4)cc3)cs2)c1 ['Torrey Pines' compound, reference compound]
Aβ38 level [2, 10]: up-regulation
Aβ40 production [3, 10]: down-regulates
Aβ38 regulation [4, 9]: up-regulation
Aβ42 production [5, 10]: down-regulates

EC50 ([5]; Mus musculus, N2a-APP695 cells, 18h incubation, ELISA assay, read-out: EC50 (µM) at inducing Aβ42 production): 10.6 µM
Compound: CC[C@H](CO)Nc1nc(N(C)c2ccccc2)c2ncn(C(C)C)c2n1 [Aftin-5, (2R)-2-[[9-isopropyl-6-(N-methylanilino)purin-2-yl]amino]butan-1-ol]
levels of Aβ38, decrease ([2]; dose-response, in parallel to the increase of Aβ42): > 70%
levels of Aβ40, maximum increase ([3]; dose-response curves, Figure 1, 18 hours): ≤ 40%
increase of the levels of Aβ42 production ([5]; dose-response curves, Figure 1, 18 hours, up to): > 900%
Toxicity ([6]; MTS assay, N2a-APP695 cells, class symbol): - ("-" means that the tested compound is non toxic with a concentration higher than 100 µM)
cytotoxic effects on cells ([6]; highest concentration tested (150 µM) or longest exposure (5 days)): did not show any cytotoxic effects

IC50 [1]: 0.0288 µM
IC50 [4]: 0.088 µM
IC50 [8]: 0.0559 µM
Compound: C[C@H](c1ccc(F)cc1CCCC(=O)O)N(c1cc(F)ccc1F)S(=O)(=O)c1ccc(Cl)cc1 [BMS 299897]
IC50 [7]: 0.008 to 0.3 µM

IC50 [1]: 0.0425 µM
IC50 [4]: 0.112 µM
IC50 [8]: 0.0618 µM
Compound: C[C@H](NC(=O)Cc1cc(F)cc(F)c1)C(=O)N[C@H](C(=O)OC(C)(C)C)c1ccccc1 [DAPT]
IC50 [7]: 0.025 to 0.056 µM
